“And” between values parts separate entries of the source, which are not always exact repeats. Equal entries are not always repeated. Toxic doses and inconclusive results are not listed. Positions of bridges follow the written chain, without caps; N, C: chain ends. Non-standard residues stand in square brackets, D forms with d. Residues, ends and D or L forms follow the SMILES beside them. Pip(4-oxo) = O=C1CCN[CH](C(=O)O)C1; NMeV = CN[CH](C(=O)O)C(C)C; Sar = CNCC(=O)O

In the assay the test system is BDF1 mice, P388 leukemia ip, median survival T/C. The assay can be described thus: NCI In Vivo Anticancer Drug Screen. Data for tumor model P388 Leukemia (intraperitoneal) in B6D2F1 (BDF1) mice. As to conditions: endpoint: median survival time, higher = longer survival. In a few lines:
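Reported as T/C, where T is the survival measurement in dosed animals and C the same measurement in vehicle controls.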

[1] abbreviates: dose: 100.0 mg/kg/injection, schedule: Q01DX009 (ip), vehicle: Klucel (hydroxypropylcellulose) (HPC).
[2] abbreviates: dose: 100.0 mg/kg/injection, schedule: Q04DX003 (ip), vehicle: Klucel (hydroxypropylcellulose) (HPC).
Setting [3] is: dose: 200.0 mg/kg/injection, schedule: Q01DX009 (ip), vehicle: Klucel (hydroxypropylcellulose) (HPC).
The mark [4] stands for this setting: dose: 200.0 mg/kg/injection, schedule: Q04DX003 (ip), vehicle: Klucel (hydroxypropylcellulose) (HPC).
Setting [5] is: dose: 400.0 mg/kg/injection, schedule: Q01DX009 (ip), vehicle: Klucel (hydroxypropylcellulose) (HPC).
[6] abbreviates: dose: 200.0 mg/kg/injection, schedule: Q04DX003 (ip), vehicle: saline.
[7] abbreviates: dose: 100.0 mg/kg/injection, schedule: Q04DX003 (ip), vehicle: saline with Tween-80.
[8] abbreviates: dose: 200.0 mg/kg/injection, schedule: Q04DX003 (ip), vehicle: saline with Tween-80.
The mark [9] stands for this setting: dose: 50.0 mg/kg/injection, schedule: Q04DX003 (ip), vehicle: saline with Tween-80.
Setting [10] is: dose: 400.0 mg/kg/injection, schedule: Q04DX003 (ip), vehicle: saline with Tween-80.
The mark [11] stands for this setting: dose: 200.0 mg/kg/injection, schedule: Q01DX009 (ip), vehicle: saline with Tween-80.
[12] abbreviates: dose: 50.0 mg/kg/injection, schedule: Q01DX009 (ip), vehicle: saline with Tween-80.
The mark [13] stands for this setting: dose: 100.0 mg/kg/injection, schedule: Q01DX009 (ip), vehicle: saline with Tween-80.

`CC(=O)Nc1cc(C)c(C)cc1[N+](=O)[O-]`: the T/C runs as follows: under setting [1], 95 % of control; under setting [2], 104 % of control; under setting [3], 109 % of control; under setting [4], 90 % of control; under setting [5], 95 % of control; (dose: 400.0 mg/kg/injection, schedule: Q04DX003 (ip), vehicle: Klucel (hydroxypropylcellulose) (HPC)) 86 % of control.
Turning to `C[N+](C)(C)CCO`, the T/C (dose: 100.0 mg/kg/injection, schedule: Q04DX003 (ip), vehicle: saline) was 100 % of control; the T/C under setting [6] is 105 % of control; the T/C (dose: 400.0 mg/kg/injection, schedule: Q04DX003 (ip), vehicle: saline) was 110 % of control.
On to `[Br][Co][Br].[NH-]CC[NH-].[NH-]CC[NH-]`, for which the T/C under setting [6] is 109 % of control.
For `Cc1ccc(C2=C(Cl)C(=O)NC2=O)s1`, the T/C (dose: 12.5 mg/kg/injection, schedule: Q01DX001 (ip), vehicle: saline with Tween-80) is 112 % of control.
Consider `Nc1nc(SCc2cccc(Br)c2)c2ncn(C3OC(CO)C(O)C3O)c2n1` (stereo not given), for which the T/C under setting [7] is 104 % of control and the T/C under setting [8] was 122 % of control.
With `C#CCOCC1CN(C)C(=O)O1` (stereo not given), the T/C by setting is: (dose: 25.0 mg/kg/injection, schedule: Q01DX009 (ip), vehicle: saline) 104 % of control; (dose: 50.0 mg/kg/injection, schedule: Q01DX009 (ip), vehicle: saline) 100 % of control; (dose: 50.0 mg/kg/injection, schedule: Q04DX003 (ip), vehicle: saline) 91 % of control; (dose: 100.0 mg/kg/injection, schedule: Q01DX009 (ip), vehicle: saline) 100 % of control; (dose: 200.0 mg/kg/injection, schedule: Q01DX009 (ip), vehicle: saline) 100 % of control; under setting [6], 100 % of control.
Turning to `CCCSCCSCCC`, the T/C is 100 % of control (dose: 25.0 mg/kg/injection, schedule: Q04DX003 (ip), vehicle: saline with Tween-80); 109 % of control under setting [9]; 113 % of control under setting [7].
`CS(=O)c1ncc2cnccn12` (stereo not given): the T/C is, setting by setting: (dose: 25.0 mg/kg/injection, schedule: Q04DX003 (ip), vehicle: water) 108 % of control; (dose: 50.0 mg/kg/injection, schedule: Q04DX003 (ip), vehicle: water) 100 % of control; (dose: 100.0 mg/kg/injection, schedule: Q01DX009 (ip), vehicle: water) 104 % of control; (dose: 100.0 mg/kg/injection, schedule: Q04DX003 (ip), vehicle: water) 108 % of control; (dose: 200.0 mg/kg/injection, schedule: Q01DX009 (ip), vehicle: water) 106 % of control.
Turning to `O=[N+]([O-])/C=C/c1ccc([N+](=O)[O-])cc1`, the T/C was 118 % of control under setting [9] and 118 % of control under setting [7].
Take `CC(C)C1NC(=O)C(N)C(C)OC(=O)C(C(C)C)N(C)C(=O)CN(C)C(=O)C2CC(=O)CCN2C1=O` (stereo not given) (tested in a mixture with another compound) (H-TV[Pip(4-oxo)][Sar][NMeV]; ester 1-C; configuration not given here): the T/C runs as follows: (dose: 50.0 micrograms/kg/injection, schedule: Q01DX009 (ip), vehicle: saline + alcohol) 168 % of control; (dose: 75.0 micrograms/kg/injection, schedule: Q01DX009 (ip), vehicle: saline + alcohol) 203 % of control; (dose: 100.0 micrograms/kg/injection, schedule: Q01DX009 (ip), vehicle: saline + alcohol) 192 % of control; (dose: 150.0 micrograms/kg/injection, schedule: Q01DX009 (ip), vehicle: saline + alcohol) 230 % of control.
`CCOP(=O)(OCC)SCSC(C)C`: the T/C is 88 % of control (dose: 0.19 mg/kg/injection, schedule: Q01DX009 (ip), vehicle: Klucel (hydroxypropylcellulose) (HPC)) and 96 % of control (dose: 3.12 mg/kg/injection, schedule: Q01DX009 (ip), vehicle: Klucel (hydroxypropylcellulose) (HPC)).
`CCCSCCCCSCCC`: the T/C is 109 % of control under setting [7], 113 % of control under setting [8] and 109 % of control under setting [10].
With `CCC(CO)NC(=O)/C=C/c1ccccc1Cl` (stereo not given), under setting [11], the T/C is 91 % of control.
For `COC(=O)[C@H]1[C@H]2C[C@@H]3c4[nH]c5cc(OC)ccc5c4CCN3C[C@H]2C[C@@H](OC(=O)/C=C/c2cc(OC)c(OC)c(OC)c2)[C@@H]1OC`, the T/C was 90 % of control (dose: 0.63 mg/kg/injection, schedule: Q01DX009 (ip), vehicle: saline with Tween-80); 90 % of control (dose: 1.25 mg/kg/injection, schedule: Q01DX009 (ip), vehicle: saline with Tween-80); 90 % of control (dose: 2.5 mg/kg/injection, schedule: Q01DX009 (ip), vehicle: saline with Tween-80).
Turning to `Oc1c(Cl)cc(Cl)cc1C=Nc1cc(C(F)(F)F)ccc1Cl`, the T/C is, setting by setting: under setting [12], 87 % of control; under setting [13], 89 % of control; under setting [11], 99 % of control.
Consider `O=c1oc2c3ccccc3c3ccccc3c2o1`, for which the T/C was 117 % of control (dose: 25.0 mg/kg/injection, schedule: Q01DX009 (ip), vehicle: Klucel (hydroxypropylcellulose) (HPC)); 115 % of control (dose: 50.0 mg/kg/injection, schedule: Q01DX009 (ip), vehicle: Klucel (hydroxypropylcellulose) (HPC)); 114 % of control under setting [1].
For the compound `OC1(CSc2ccccc2)CCCCC1`, the T/C is 111 % of control under setting [12]; 116 % of control and 119 % of control under setting [13]; 116 % of control under setting [11]; 122 % of control (dose: 400.0 mg/kg/injection, schedule: Q01DX009 (ip), vehicle: saline with Tween-80).
For the compound `OC(CC1CCCCN1)c1cc2c(Cl)cc(Cl)cc2c2cc(C(F)(F)F)ccc12` (stereo not given), the T/C under setting [12] is 114 % of control.
Consider `N#CN=CN1CC=C(c2ccc(Cl)cc2)CC1`, for which the T/C under setting [12] was 98 % of control, the T/C under setting [13] was 93 % of control and the T/C under setting [11] was 94 % of control.
For the compound `S=C(/N=C1\CCC\C1=C/c1ccccc1)/N=C1\CCC\C1=C/c1ccccc1`, the T/C is, setting by setting: under setting [7], 100 % of control; under setting [8], 109 % of control; under setting [10], 115 % of control.
Consider `CC(C)(C)/C=N/Nc1ccc([N+](=O)[O-])cc1[N+](=O)[O-]`, for which the T/C (dose: 50.0 mg/kg/injection, schedule: Q04DX003 (ip), vehicle: Klucel (hydroxypropylcellulose) (HPC)) was 104 % of control; the T/C under setting [1] was 100 % of control; the T/C under setting [2] was 104 % of control; the T/C under setting [3] was 100 % of control; the T/C under setting [4] is 109 % of control; the T/C under setting [5] is 95 % of control.

The record behind these values is PubChem BioAssay AID328 (DTP/NCI, 2004).
